Reference: the supplement of paper PMC6315032

How the values were obtained:
Assay in all cases: apparent dissociation constant (pKDapp, Kinobeads competition, Cheng-Prusoff corrected) (-log10 M); higher = tighter binding
AKT2 = AKT2 (UniProt P31751); conditions: affinity matrix / lysate: Kinobeads, mixed HEK293/K-562/placenta lysate
ATM = ATM (UniProt Q13315); conditions: affinity matrix / lysate: Lipid Kinobeads, mixed HeLa/Jurkat/K-562 lysate
BMPR1B = BMPR1B (UniProt O00238); conditions: affinity matrix / lysate: Kinobeads, mixed HEK293/K-562/placenta lysate
BMPR1B, sequence (O00238 whole entry): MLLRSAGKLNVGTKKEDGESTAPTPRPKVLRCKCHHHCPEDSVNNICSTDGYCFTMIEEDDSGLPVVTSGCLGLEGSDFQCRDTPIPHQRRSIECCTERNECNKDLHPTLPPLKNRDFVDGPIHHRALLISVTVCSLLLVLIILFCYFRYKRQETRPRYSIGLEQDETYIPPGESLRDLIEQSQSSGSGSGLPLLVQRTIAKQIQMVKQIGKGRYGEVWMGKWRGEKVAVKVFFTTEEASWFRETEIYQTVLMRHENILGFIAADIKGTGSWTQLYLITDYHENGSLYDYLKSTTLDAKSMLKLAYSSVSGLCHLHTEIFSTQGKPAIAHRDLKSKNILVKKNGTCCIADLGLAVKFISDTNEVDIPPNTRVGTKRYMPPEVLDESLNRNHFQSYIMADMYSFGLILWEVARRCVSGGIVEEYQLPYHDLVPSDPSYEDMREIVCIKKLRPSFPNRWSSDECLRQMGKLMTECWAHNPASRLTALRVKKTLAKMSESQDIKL

BMPR2 = BMPR2 (UniProt Q13873); conditions: affinity matrix / lysate: Kinobeads, mixed HEK293/K-562/placenta lysate
BMPR2, sequence (Q13873 whole entry): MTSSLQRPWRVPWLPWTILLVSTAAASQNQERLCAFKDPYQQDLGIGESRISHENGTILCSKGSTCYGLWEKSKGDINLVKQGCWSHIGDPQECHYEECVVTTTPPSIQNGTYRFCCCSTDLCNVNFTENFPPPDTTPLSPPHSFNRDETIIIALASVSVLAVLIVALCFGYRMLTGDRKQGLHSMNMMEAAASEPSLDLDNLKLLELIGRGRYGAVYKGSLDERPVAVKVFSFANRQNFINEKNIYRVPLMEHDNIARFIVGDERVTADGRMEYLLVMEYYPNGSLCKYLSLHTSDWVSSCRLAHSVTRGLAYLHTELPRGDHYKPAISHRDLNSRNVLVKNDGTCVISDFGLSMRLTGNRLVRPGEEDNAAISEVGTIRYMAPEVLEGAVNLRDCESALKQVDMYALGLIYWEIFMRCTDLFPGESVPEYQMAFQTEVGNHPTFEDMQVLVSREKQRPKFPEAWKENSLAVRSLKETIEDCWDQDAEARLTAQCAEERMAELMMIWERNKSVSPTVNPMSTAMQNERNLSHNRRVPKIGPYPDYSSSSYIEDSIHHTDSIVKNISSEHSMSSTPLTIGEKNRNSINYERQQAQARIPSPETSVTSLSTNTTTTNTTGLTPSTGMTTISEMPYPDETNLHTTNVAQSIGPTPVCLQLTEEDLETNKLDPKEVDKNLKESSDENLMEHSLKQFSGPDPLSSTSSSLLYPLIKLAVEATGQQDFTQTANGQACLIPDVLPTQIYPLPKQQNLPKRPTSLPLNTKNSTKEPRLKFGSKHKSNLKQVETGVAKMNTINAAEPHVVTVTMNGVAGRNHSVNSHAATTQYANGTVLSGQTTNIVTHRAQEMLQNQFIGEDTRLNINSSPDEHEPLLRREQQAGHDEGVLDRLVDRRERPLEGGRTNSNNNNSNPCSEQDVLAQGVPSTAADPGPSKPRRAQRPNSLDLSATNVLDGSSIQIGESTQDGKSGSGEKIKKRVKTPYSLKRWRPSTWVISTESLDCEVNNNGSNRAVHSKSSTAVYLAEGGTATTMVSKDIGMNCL

CAMK2D = CAMK2D (UniProt Q13557); conditions: affinity matrix / lysate: Kinobeads, mixed HEK293/K-562/placenta lysate
CAMKK1 = CAMKK1 (UniProt Q8N5S9); conditions: affinity matrix / lysate: Kinobeads, mixed HEK293/K-562/placenta lysate
EPHA5 = EPHA5 (UniProt P54756); conditions: affinity matrix / lysate: Kinobeads, mixed HEK293/K-562/placenta lysate
EPHB2 = EPHB2 (UniProt P29323); conditions: affinity matrix / lysate: Kinobeads, mixed HEK293/K-562/placenta lysate
FGFR2 = FGFR2 (UniProt P21802); conditions: affinity matrix / lysate: Kinobeads, mixed HEK293/K-562/placenta lysate
FGFR2, sequence (P21802 whole entry, looked up): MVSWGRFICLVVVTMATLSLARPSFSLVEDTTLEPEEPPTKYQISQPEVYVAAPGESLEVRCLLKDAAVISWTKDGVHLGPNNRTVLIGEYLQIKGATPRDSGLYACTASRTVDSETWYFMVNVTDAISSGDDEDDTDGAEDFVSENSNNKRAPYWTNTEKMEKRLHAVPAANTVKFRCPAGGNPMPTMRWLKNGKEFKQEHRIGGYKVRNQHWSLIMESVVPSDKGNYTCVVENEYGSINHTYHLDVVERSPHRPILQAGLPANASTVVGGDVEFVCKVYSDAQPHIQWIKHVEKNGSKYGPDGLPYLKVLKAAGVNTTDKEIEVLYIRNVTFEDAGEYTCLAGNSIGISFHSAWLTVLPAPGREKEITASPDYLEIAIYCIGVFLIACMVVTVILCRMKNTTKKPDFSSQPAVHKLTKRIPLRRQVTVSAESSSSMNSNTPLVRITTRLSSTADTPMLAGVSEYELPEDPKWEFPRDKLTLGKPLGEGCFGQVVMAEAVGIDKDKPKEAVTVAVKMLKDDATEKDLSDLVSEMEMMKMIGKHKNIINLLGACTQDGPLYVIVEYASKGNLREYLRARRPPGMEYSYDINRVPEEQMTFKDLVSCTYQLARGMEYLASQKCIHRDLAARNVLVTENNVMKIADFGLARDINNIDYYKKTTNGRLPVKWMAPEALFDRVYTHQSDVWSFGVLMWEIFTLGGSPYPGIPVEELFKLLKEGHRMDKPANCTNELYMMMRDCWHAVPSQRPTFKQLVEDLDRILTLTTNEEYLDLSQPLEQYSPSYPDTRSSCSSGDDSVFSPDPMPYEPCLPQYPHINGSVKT

FLT4 = FLT4 (UniProt P35916); conditions: affinity matrix / lysate: Kinobeads, mixed HEK293/K-562/placenta lysate
HCK = HCK (UniProt P08631); conditions: affinity matrix / lysate: Kinobeads, mixed HEK293/K-562/placenta lysate
IGF1R = IGF1R (UniProt P08069); conditions: affinity matrix / lysate: Kinobeads, mixed HEK293/K-562/placenta lysate
IGF1R, sequence (P08069 whole entry, looked up): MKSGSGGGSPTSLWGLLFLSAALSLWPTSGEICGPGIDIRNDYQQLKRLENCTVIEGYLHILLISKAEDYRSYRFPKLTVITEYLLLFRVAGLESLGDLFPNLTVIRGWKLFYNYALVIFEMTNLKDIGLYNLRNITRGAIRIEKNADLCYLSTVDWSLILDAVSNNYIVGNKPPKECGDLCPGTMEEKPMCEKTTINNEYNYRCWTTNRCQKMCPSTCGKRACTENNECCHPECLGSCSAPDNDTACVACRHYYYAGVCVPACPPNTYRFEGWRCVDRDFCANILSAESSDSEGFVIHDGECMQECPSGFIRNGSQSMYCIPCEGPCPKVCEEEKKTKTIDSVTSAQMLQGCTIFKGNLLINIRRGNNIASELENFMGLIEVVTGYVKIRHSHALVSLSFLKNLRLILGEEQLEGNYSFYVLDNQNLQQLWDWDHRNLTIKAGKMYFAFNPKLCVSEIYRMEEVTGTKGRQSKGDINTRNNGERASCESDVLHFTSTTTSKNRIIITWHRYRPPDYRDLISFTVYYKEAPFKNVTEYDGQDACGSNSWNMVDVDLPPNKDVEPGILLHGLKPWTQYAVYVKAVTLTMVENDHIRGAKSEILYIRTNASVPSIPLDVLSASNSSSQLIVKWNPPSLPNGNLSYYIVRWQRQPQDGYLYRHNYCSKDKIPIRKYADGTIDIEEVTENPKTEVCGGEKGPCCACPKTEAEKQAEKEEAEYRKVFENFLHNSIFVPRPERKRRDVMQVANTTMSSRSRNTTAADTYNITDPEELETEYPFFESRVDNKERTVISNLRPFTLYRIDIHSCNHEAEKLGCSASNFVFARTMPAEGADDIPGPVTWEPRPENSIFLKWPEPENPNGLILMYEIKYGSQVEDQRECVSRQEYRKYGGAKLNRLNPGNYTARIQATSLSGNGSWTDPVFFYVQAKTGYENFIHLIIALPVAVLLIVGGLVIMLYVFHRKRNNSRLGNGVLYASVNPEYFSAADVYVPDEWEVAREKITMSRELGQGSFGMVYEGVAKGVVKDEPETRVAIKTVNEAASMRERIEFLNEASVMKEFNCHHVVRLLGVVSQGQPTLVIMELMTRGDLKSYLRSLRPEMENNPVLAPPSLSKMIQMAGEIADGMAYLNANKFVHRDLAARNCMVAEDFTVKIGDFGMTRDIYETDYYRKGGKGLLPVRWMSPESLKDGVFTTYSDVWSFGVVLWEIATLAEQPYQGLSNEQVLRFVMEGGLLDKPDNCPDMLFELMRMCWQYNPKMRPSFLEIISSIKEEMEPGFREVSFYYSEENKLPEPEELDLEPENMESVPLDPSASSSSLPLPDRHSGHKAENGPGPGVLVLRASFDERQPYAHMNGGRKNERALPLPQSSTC

IKBKE = IKBKE (UniProt Q14164); conditions: affinity matrix / lysate: Kinobeads, mixed HEK293/K-562/placenta lysate
MAP3K15 = MAP3K15 (UniProt Q6ZN16); conditions: affinity matrix / lysate: Kinobeads, mixed HEK293/K-562/placenta lysate
MAP3K7 = MAP3K7 (UniProt O43318); conditions: affinity matrix / lysate: Kinobeads, mixed HEK293/K-562/placenta lysate
MAP3K7, sequence (O43318 whole entry): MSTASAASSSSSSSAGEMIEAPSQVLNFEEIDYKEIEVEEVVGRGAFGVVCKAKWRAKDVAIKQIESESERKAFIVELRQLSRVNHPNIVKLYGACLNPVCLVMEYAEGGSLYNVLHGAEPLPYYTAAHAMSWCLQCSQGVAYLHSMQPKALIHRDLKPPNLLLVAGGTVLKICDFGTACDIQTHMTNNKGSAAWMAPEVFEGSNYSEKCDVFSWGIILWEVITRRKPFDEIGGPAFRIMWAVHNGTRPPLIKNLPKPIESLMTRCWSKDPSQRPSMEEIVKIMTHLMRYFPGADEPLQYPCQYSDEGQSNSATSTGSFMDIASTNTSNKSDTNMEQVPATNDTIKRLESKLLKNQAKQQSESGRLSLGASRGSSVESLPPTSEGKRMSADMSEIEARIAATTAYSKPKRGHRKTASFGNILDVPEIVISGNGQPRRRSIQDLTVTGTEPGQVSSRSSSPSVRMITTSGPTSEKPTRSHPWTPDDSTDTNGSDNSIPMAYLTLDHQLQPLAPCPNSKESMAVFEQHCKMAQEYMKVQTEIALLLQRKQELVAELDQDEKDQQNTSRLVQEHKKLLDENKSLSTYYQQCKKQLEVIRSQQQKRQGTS

MAP4K4 = MAP4K4 (UniProt O95819); conditions: affinity matrix / lysate: Kinobeads, mixed HEK293/K-562/placenta lysate
MAST3 = MAST3 (UniProt O60307); conditions: affinity matrix / lysate: Kinobeads, mixed HEK293/K-562/placenta lysate
MASTL = MASTL (UniProt Q96GX5); conditions: affinity matrix / lysate: Kinobeads, mixed HEK293/K-562/placenta lysate
MST1R = MST1R (UniProt Q04912); conditions: affinity matrix / lysate: Kinobeads, mixed HEK293/K-562/placenta lysate
NEK1 = NEK1 (UniProt Q96PY6); conditions: affinity matrix / lysate: Kinobeads, mixed HEK293/K-562/placenta lysate
NEK6 = NEK6 (UniProt Q9HC98); conditions: affinity matrix / lysate: Kinobeads, mixed HEK293/K-562/placenta lysate
PCTK3 = PCTK3 (UniProt Q07002); conditions: affinity matrix / lysate: Kinobeads, mixed HEK293/K-562/placenta lysate
PI4K2B = PI4K2B (UniProt Q8TCG2); conditions: affinity matrix / lysate: Lipid Kinobeads, mixed HeLa/Jurkat/K-562 lysate
PIM3 = PIM3 (UniProt Q86V86); conditions: affinity matrix / lysate: Kinobeads, mixed HEK293/K-562/placenta lysate
PRKCQ = PRKCQ (UniProt Q04759); conditions: affinity matrix / lysate: Kinobeads, mixed HEK293/K-562/placenta lysate
RPS6KA1 = RPS6KA1 (UniProt Q15418); conditions: affinity matrix / lysate: Kinobeads, mixed HEK293/K-562/placenta lysate
RPS6KA6 = RPS6KA6 (UniProt Q9UK32); conditions: affinity matrix / lysate: Kinobeads, mixed HEK293/K-562/placenta lysate
RPS6KA6, sequence (Q9UK32 whole entry): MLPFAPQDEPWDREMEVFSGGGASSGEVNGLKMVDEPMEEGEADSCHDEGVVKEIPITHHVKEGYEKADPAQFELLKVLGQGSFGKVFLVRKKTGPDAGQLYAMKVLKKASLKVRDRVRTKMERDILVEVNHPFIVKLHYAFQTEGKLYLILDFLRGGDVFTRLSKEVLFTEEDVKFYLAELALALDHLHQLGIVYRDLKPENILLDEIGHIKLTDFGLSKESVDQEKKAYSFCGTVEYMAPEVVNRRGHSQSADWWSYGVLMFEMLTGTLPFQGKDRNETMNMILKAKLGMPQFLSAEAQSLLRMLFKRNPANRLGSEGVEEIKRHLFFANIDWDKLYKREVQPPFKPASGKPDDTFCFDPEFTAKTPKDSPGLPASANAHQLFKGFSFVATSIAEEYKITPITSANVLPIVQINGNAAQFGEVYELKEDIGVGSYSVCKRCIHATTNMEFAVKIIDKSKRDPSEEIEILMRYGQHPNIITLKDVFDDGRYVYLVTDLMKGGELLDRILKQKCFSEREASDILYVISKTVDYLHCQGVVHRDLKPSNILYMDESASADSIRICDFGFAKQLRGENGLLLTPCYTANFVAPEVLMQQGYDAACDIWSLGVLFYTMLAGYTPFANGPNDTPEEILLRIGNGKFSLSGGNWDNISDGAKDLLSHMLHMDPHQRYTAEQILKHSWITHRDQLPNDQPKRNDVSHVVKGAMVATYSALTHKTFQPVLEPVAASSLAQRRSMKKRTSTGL

SIK2 = SIK2 (UniProt Q9H0K1); conditions: affinity matrix / lysate: Kinobeads, mixed HEK293/K-562/placenta lysate
SNRK = SNRK (UniProt Q9NRH2); conditions: affinity matrix / lysate: Kinobeads, mixed HEK293/K-562/placenta lysate
SRC = SRC (UniProt P12931); conditions: affinity matrix / lysate: Kinobeads, mixed HEK293/K-562/placenta lysate
STK17A = STK17A (UniProt Q9UEE5); conditions: affinity matrix / lysate: Kinobeads, mixed HEK293/K-562/placenta lysate
SYK = SYK (UniProt P43405); conditions: affinity matrix / lysate: Kinobeads, mixed HEK293/K-562/placenta lysate
WEE1 = WEE1 (UniProt P30291); conditions: affinity matrix / lysate: Kinobeads, mixed HEK293/K-562/placenta lysate

Structure (SMILES) | apparent dissociation constant (-log10 M) (AKT2) | apparent dissociation constant (-log10 M) (ATM) | apparent dissociation constant (-log10 M) (BMPR1B) | apparent dissociation constant (-log10 M) (BMPR2) | apparent dissociation constant (-log10 M) (CAMK2D) | apparent dissociation constant (-log10 M) (CAMKK1) | apparent dissociation constant (-log10 M) (EPHA5) | apparent dissociation constant (-log10 M) (EPHB2) | apparent dissociation constant (-log10 M) (FGFR2) | apparent dissociation constant (-log10 M) (FLT4) | apparent dissociation constant (-log10 M) (HCK) | apparent dissociation constant (-log10 M) (IGF1R) | apparent dissociation constant (-log10 M) (IKBKE) | apparent dissociation constant (-log10 M) (MAP3K15) | apparent dissociation constant (-log10 M) (MAP3K7) | apparent dissociation constant (-log10 M) (MAP4K4) | apparent dissociation constant (-log10 M) (MAST3) | apparent dissociation constant (-log10 M) (MASTL) | apparent dissociation constant (-log10 M) (MST1R) | apparent dissociation constant (-log10 M) (NEK1) | apparent dissociation constant (-log10 M) (NEK6) | apparent dissociation constant (-log10 M) (PCTK3) | apparent dissociation constant (-log10 M) (PI4K2B) | apparent dissociation constant (-log10 M) (PIM3) | apparent dissociation constant (-log10 M) (PRKCQ) | apparent dissociation constant (-log10 M) (RPS6KA1) | apparent dissociation constant (-log10 M) (RPS6KA6) | apparent dissociation constant (-log10 M) (SIK2) | apparent dissociation constant (-log10 M) (SNRK) | apparent dissociation constant (-log10 M) (SRC) | apparent dissociation constant (-log10 M) (STK17A) | apparent dissociation constant (-log10 M) (SYK) | apparent dissociation constant (-log10 M) (WEE1)
COc1ccc(-c2ccc3c(N4CCOC[C@@H]4C)nc(N4CCOC[C@@H]4C)nc3n2)cc1CO [AZD8055] | < 6 | 6.36 | < 6 | < 6 | < 6 | < 6 | < 6 | < 6 | < 6 | < 6 | < 6 | < 6 | < 6 | < 6 | < 6 | < 6 | < 6 | < 6 | < 6 | < 6 | < 6 | < 6 | < 6 | < 6 | < 6 | < 6 | < 6 | < 6 | < 6 | < 6 | < 6 | < 6 | < 6
CCNC(=O)Nc1ccc(-c2nc(N3CCOC[C@@H]3C)c3c(n2)C(C)(C)S(=O)(=O)C3)cc1 [CZ415] | < 6 | < 6 | < 6 | < 6 | < 6 | < 6 | < 6 | < 6 | < 6 | < 6 | < 6 | < 6 | < 6 | < 6 | < 6 | < 6 | < 6 | < 6 | < 6 | < 6 | < 6 | < 6 | < 6 | < 6 | < 6 | < 6 | < 6 | < 6 | < 6 | < 6 | < 6 | < 6 | < 6
